Reference: BindingDB's records for patent US12331046 (Nimbus Clotho, 2025)
pIC50: −log10 of the molar value.

molecular target: T1, CTP synthase 1 (Homo sapiens, UniProt P17812); test: hCTPS1 Biochemical Assay
T1 sequence (P17812 whole entry): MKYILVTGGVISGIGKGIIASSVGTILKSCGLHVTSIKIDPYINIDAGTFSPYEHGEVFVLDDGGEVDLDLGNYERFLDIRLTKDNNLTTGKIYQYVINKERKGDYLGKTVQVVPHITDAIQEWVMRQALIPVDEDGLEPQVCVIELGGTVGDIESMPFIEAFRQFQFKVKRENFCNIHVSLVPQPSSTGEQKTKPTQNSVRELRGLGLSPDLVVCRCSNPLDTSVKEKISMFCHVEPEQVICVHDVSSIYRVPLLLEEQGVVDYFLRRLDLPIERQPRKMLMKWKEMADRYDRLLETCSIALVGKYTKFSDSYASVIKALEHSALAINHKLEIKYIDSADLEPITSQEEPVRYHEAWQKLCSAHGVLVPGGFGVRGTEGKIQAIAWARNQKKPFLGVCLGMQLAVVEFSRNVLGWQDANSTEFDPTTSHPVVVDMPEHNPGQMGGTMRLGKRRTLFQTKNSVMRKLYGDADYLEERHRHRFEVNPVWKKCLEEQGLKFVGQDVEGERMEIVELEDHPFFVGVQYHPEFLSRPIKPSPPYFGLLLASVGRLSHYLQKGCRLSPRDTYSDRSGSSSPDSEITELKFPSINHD
Procedure: Purified human CTPS1 protein was prepared in 1× assay buffer to the final working protein concentration required for the reaction. A 2.5 uL volume per well of human CTPS1 protein was mixed with 0.1 uL per well of test compound dissolved in DMSO and pre-incubated at 25 degrees C. for 10 minutes. 2.5 uL per well of the reaction precursors ATP (UltraPure ATP from ADP-Glo™ kit) and UTP were then added and pre-incubated for an additional 10 minutes at 25 degrees C. Finally, the reaction was initiated by the addition of 5 uL of the reaction precursors L-glutamine and GTP. The final concentration of all reaction components in the assay: ATP (120 uM), UTP (160 uM), GTP (60 uM), L-Glutamine (100 uM), DMSO (1%), hCTPS1 (25 nM). This mixture was incubated for an appropriate amount of time within the determined linear phase of the reaction at 25 degrees C. under sealed plate conditions with constant agitation at 500 revolutions per minute (rpm). ADP-Glo™ reagent was added for 60 minutes (10 uL per well) and subsequently ADP-Glo™ development reagent was added for 60 minutes (20 uL per well) prior to signal detection in a microplate reader (Envision Multilabel Reader, Perkin Elmer). Following each reagent addition over the course of the assay, assay plates were pulse centrifuged for 1 minute at 1000 rpm.

Row | Compound | pIC50
1 | CCc1c[nH]c2ncc(-c3ccc(C(=O)NCc4cc(NS(=O)(=O)C5CC5)ccn4)cc3)cc12 [US12331046, Compound I-38] | > 7.00
2 | CCOc1cncc(-c2cnc(C(=O)NCc3cccc(NS(=O)(=O)C(F)F)c3)s2)n1 [US12331046, Compound I-61] | > 7.00
3 | CCOc1cncc(-c2ccc(C(=O)NC(C#N)c3cc(NS(=O)(=O)C4CC4)ccn3)cc2)n1 (stereo not given) [US12331046, Compound I-64] | > 7.00
4 | CCOc1cncc(-c2nnc(C(=O)N[C@H](CC)c3cc(NS(=O)(=O)C4CC4)ccn3)s2)n1 [US12331046, Compound I-240] | > 7.00
5 | CCOc1cncc(-c2cnc(C(=O)NCc3cc(F)cc(NS(=O)(=O)C4CC4)c3)s2)n1 [US12331046, Compound I-256] | > 7.00
